# Assay results as given in BindingDB's records for PubMed 3702863 (R. J. Reynolds Tobacco, 1986).
# pKi: −log10 of the molar value.
# Target: Nicotinic acetylcholine receptor (Rattus leucopus, UniProt Q62594)
# Sequence (Q62594 whole entry): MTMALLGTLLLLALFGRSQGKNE
row,SMILES,pKi
1,COc1cc(CC(C)N)cc(OC)c1OC (configuration not stated),6.43
2,C=C(C=O)C[C@H]1C[C@H](O)[C@]2(C)O[C@@H]3C[C@@H]4O[C@@H]5C[C@]6(C)O[C@]7(C)CC[C@@H]8O[C@@H]9C[C@]%10(C)O[C@@H]%11C(C)=CC(=O)O[C@H]%11C[C@H]%10O[C@H]9C[C@@H](C)[C@H]8O[C@H]7C[C@H]6O[C@@]5(C)C/C=C\[C@H]4O[C@H]3C[C@H]2O1,< 5.00
3,CN1C(=O)CCC1c1cccnc1 (configuration not stated) [CAS_21906],5.30
4,C[N+](C)(C)CCCCCCCCCC[N+](C)(C)C [Decamethonium Iodide],5.51
5,C[N+](C)(C)CCCCCC[N+](C)(C)C [Hexamethoniumdibromide],< 5.00
6,CN1[C@@H](C[C@@H](O)c2ccccc2)CCC[C@H]1CC(=O)c1ccccc1 [Lobeline],8.05
7,"COc1cc2c3cc1Oc1cc(ccc1O)C[C@@H]1c4c(cc(OC)c(O)c4Oc4ccc(cc4)C[C@@H]3N(C)CC2)CC[N+]1(C)C [Tubocurarine,d]",< 5.00
